According to patent publication US20010008892A1 (priority 1998, published 2001):
pEC50: −log10 of the molar value. Like-named read-outs stand apart in the source and are kept apart here.

Key:
[1] = Cytotoxicity in MT4 cells (LC50, 50% of the cells remain viable); assay type: cell-based; conditions: human
Source text: (§1) The IC50 is the concentration of compound that gives 50% inhibition of the cytopathic effect of HIV. The LC50 is the concentration of compound at which 50% of the cells remain viable.

HIV = test: Antiviral activity: inhibition of the cytopathic effect of HIV in MT4 cells; assay type: cell-based
Source text: as §1

HIV-1 protease = HIV-1 protease (Human immunodeficiency virus type 1 group M subtype B, UniProt P04585); test: Fluorogenic assay for screening inhibitors of HIV protease; conditions: for inhibition at 0.0005 µM: pH 4.5, read-out: % Inhib. (0.5 nM); for % Inhib. (0.5 nM): compound concentration 0.5 nM, fluorogenic substrate 1.3 μM, pH 4.5, 30° C.
Method: A compound of the invention is dissolved in DMSO. A small aliquot is diluted with DMSO to 100 times the final concentration desired for testing. The test is carried out in a 6×50 mm tube in a total volume of 300 microliters. The final concentrations of the components in the reaction buffer are: 125 mM sodium acetate, 1 M sodium chloride, 5 mM dithiothreitol, 0.5 mg/ml bovine serum albumin, 1.3 μM fluorogenic substrate, 2% (v/v) dimethylsulfoxide, pH 4.5. After addition of inhibitor, the reaction mixture is placed in the fluorometer cell holder and incubated at 30° C. for several minutes. The reaction is initiated by the addition of a small aliquot of cold HIV protease. The fluorescence intensity (excitation 340 nm, emmision 490 nM) is recorded as a function of time. The reaction rate is determined for the first six to eight minutes. The observed rate is directly proportional to the moles of substrate cleaved per unit time. The percent inhibition is 100×(1- (rate in presence of inhibitor)/(rate in absence of inhibitor)).
The test compounds were then tested at a concentration of 0.5 nM.

MT4 cells = test: Cytotoxicity in MT4 cells (LC50, 50% of the cells remain viable); assay type: cell-based; conditions: MT4 cells; concentration at which 50% of the cells remain viable
Source text: as §1

[2] = Human immunodeficiency virus 1, MT4 cells, 50% inhibition of the cytopathic effect of HIV, read-out: EC50
[3] = MT4 cells, 50% inhibition of the cytopathic effect of HIV, read-out: EC50

Row | SMILES | CC50 [1] | pEC50 (HIV; [2]) | inhibition at 0.0005 µM (HIV-1 protease) | CC50 ([1]; MT4 cells, concentration at which 50% of the cells remain viable, read-out: LC50 (the source's name)) | pEC50 (HIV; Human immunodeficiency virus 1, MT4) | CC50 (MT4 cells) | pEC50 (HIV; [3]) | % Inhib. (0.5 nM) (HIV-1 protease)
1 | CC(C)c1nc(CN(C)C(=O)N[C@H](C(=O)N[C@@H](Cc2ccccc2)[C@H](O)CN(C(C)C)S(=O)(=O)c2ccc(N)cc2)C(C)C)cs1 [Example 29, N′-[(1S)-1-[[[(1S,2R)-3-[[(4-Aminophenyl)sulfonyl](1-methylethyl)amino]-2-hydroxy-1-(phenylmethyl)propyl]amino]carbonyl]-2-methylpropyl]-N-methyl-N-[2-(1-methylethyl)-4-thiazolylmethyl]urea] | 31200 nM | 6.76 | 64% | – | – | – | – | –
2 | CC(C)c1nc(CN(C)C(=O)N[C@H](C(=O)N[C@@H](Cc2ccccc2)[C@H](O)CN2CC[C@@H](OCc3cncs3)C[C@H]2C(=O)NC(C)(C)C)C(C)C)cs1 [Example 32, N′-[(1S)-1-[[[(1S,2R)-3-[(2S,4R)-2-[[(1,1-Dimethylethyl)amino]carbonyl]-4-(5-thiazolylmethoxy)-1-piperidinyl]-2-hydroxy-1-(phenylmethyl)propyl]amino]carbonyl]-2-methylpropyl]-N-methyl-N-[2-(1-methylethyl)-4-thiazolylmethyl]urea] | 64100 nM | 7.82 | 66% | – | – | – | – | –
3 | CC(C)CN(C[C@@H](O)[C@H](Cc1ccccc1)NC(=O)[C@@H](NC(=O)N(C)Cc1csc(C(C)C)n1)C(C)C)C(=O)NC(C)(C)C [Example 26] | – | – | 42% | 17400 nM | 6.09 | – | – | –
4 | CC(C)c1nc(CN(C)C(=O)N[C@H](C(=O)N[C@@H](Cc2ccccc2)[C@H](O)CN2CCN(Cc3cncs3)C[C@H]2C(=O)NC(C)(C)C)C(C)C)cs1 [Example 12, N′-[(1S)-1-[[[(1S,2R)-3-[(2S)-2-[[(1,1-Dimethylethyl)amino]carbonyl]-4-(5-thiazolylmethyl)-1-piperazinyl]-2-hydroxy-1-(phenylmethyl)propyl]amino]carbonyl]-2-methylpropyl]-N-methyl-N-[2-(1-methylethyl)-4-thiazolylmethyl]urea] | 70300 nM | 7.89 | 61% | – | – | – | – | –
5 | COc1cc(CN2CCN(C[C@@H](O)[C@H](Cc3ccccc3)NC(=O)[C@@H](NC(=O)N(C)Cc3csc(C(C)C)n3)C(C)C)[C@H](C(=O)NC(C)(C)C)C2)ccc1O [Example 14, N′-[(1S)-1-[[[(1S,2R)-3-[(2S)-2-[[(1,1-Dimethylethyl)amino]carbonyl]-4-[(4-hydroxy-3-methoxyphenyl)methyl]-1-piperazinyl]-2-hydroxy-1-(phenylmethyl)propyl]amino]carbonyl]-2-methylpropyl]-N-methyl-N-[2-(1-methylethyl)-4-thiazolylmethyl]urea] | 22700 nM | 7.39 | 63% | – | – | – | – | –
6 | CC(C)c1nc(CN(C)C(=O)N[C@H](C(=O)N[C@@H](Cc2ccccc2)[C@H](O)CN2CCN(Cc3ccccc3)C[C@H]2C(=O)NC(C)(C)C)C(C)C)cs1 [Example 13, N′-[(1S)-1-[[[(1S,2R)-3-[(2S)-2-[[(1,1-Dimethylethyl)amino]carbonyl]-4-(phenylmethyl)-1-piperazinyl]-2-hydroxy-1-(phenylmethyl)propyl]amino]carbonyl]-2-methylpropyl]-N-methyl-N-[2-(1-methylethyl)-4-thiazolylmethyl]urea] | 60400 nM | 7.32 | 66% | – | – | – | – | –
7 | CC(C)c1nc(COC(=O)N[C@H](C(=O)N[C@@H](Cc2ccccc2)[C@H](O)CN2CCN(Cc3ccccc3)C[C@H]2C(=O)NC(C)(C)C)C(C)C)cs1 [Example 2, 2-(1-Methylethyl)-4-thiazolylmethyl-[(1S)-1-[[[(1S,2R)-3-[(2S)-2-[[(1,1-dimethylethyl)amino]carbonyl]-4-(phenylmethyl)-1-piperazinyl]-2-hydroxy-1-(phenylmethyl)propyl]amino]carbonyl]-2-methylpropyl]carbamate] | – | – | – | – | – | 47100 nM | 7.66 | 66%
8 | COc1ccc(CN2CCN(C[C@@H](O)[C@H](Cc3ccccc3)NC(=O)[C@@H](NC(=O)OCc3cnc(C)s3)C(C)C)[C@H](C(=O)NC(C)(C)C)C2)cc1OC [Example 21, 2-Methyl-5-thiazolylmethyl-[(1S)-1-[[[(1S,2R)-3-[(2S)-4-[(3,4-dimethoxylphenyl)methyl]-2-[[(1,1-dimethylethyl)amino]carbonyl]-1-piperazinyl]-2-hydroxy-1-(phenylmethyl)propyl]amino]carbonyl]-2-methylpropyl]carbamate] | – | – | – | – | – | 53000 nM | 7.96 | 44%
9 | CC(C)[C@H](NC(=O)N(C)Cc1cncs1)C(=O)N[C@@H](Cc1ccccc1)[C@H](O)CN1CCN(Cc2cncs2)C[C@H]1C(=O)NC(C)(C)C [Example 23, N′-[(1S)-1-[[[(1S,2R)-3-[(2S)-2-[[(1,1-Dimethylethyl)amino]carbonyl]-4-(5-thiazolylmethyl)-1-piperazinyl]-2-hydroxy-1-(phenylmethyl)propyl]amino]carbonyl]-2-methylpropyl]-N-methyl-N-(5-thiazolylmethyl)urea] | > 100000 nM | 6.59 | 51% | – | – | – | – | –
10 | CC(C)c1nc(COC(=O)N[C@H](C(=O)N[C@@H](Cc2ccccc2)[C@H](O)CN2CCN(Cc3ccc4ccccc4n3)C[C@H]2C(=O)NC(C)(C)C)C(C)C)cs1 [Example 10, 2-(1-Methylethyl)-4-thiazolylmethyl-[(1S)-1-[[[(1S,2R)-3-[(2S)-2-[[(1,1-dimethylethyl)amino]carbonyl]-4-(2-quinolinylmethyl)-1-piperazinyl]-2-hydroxy-1-(phenylmethyl)propyl]amino]carbonyl]-2-methylpropyl]carbamate] | – | – | – | – | – | 18200 nM | 7.85 | 70%
11 | CC(C)c1ncc(COC(=O)N[C@H](C(=O)N[C@@H](Cc2ccccc2)[C@H](O)CN2C[C@H]3CCCC[C@H]3C[C@H]2C(=O)NC(C)(C)C)C(C)C)s1 [Example 30, 2-(1-Methylethyl)-5-thiazolylmethyl-[(1S)-1-[[[(1S,2R)-3-[(3S)-3-[[(1,1-dimethylethyl)amino]carbonyl](4aα,8aα)octahydro-2-isoquinolinyl]-2-hydroxy-1-(phenylmethyl)propyl]amino]carbonyl]-2-methylpropyl]carbamate] | – | – | – | – | – | 17900 nM | 7.70 | 55%
